# From US20260242452A1, “METHOD FOR DEGRADING TARGET PROTEIN” (Inter-University Research Institute Corporation Research …, priority 2023, published 2026)
# How the values were obtained:
# Type in all cases: cell-based, human
# [1] = tested on: SMC6-GFP; assay: Degradation of SMC6-GFP, GFP fluorescence quantified by flow cytometry (FACS); conditions: 1 μM 5-Ph-IAA, 4 hours; HCT116 cells expressing SMC6-GFP, OsTIR1 (F74G) and GFP nanobody adapter
# Procedure: (§1) As an mAID-single-chain antibody (nanobody) gene (also referred to as an adapter), a wild-type (WT adapter) and a ubiquitination-resistant mutant (KR adapter) in which all lysine residues (K) in the amino acid sequence encoded by the mAID-single-chain antibody (nanobody) gene were substituted with arginine residues (R) were prepared.
# (§2) A co-expression vector in which the OsTIR1 (F74G) gene and the WT adapter or the KR adapter were connected by a self-cleaving sequence P2A gene was prepared (see FIG. 2).
# (§3) In the chromosome of HCT116 cells, DNA encoding GFP was introduced into the downstream of DNA encoding each of the nuclear protein SMC6 and the cytoplasmic protein DHC1 by transposon, and cells expressing SMC6-GFP and cells expressing DHC1-GFP were prepared.
# (§4) A co-expression vector containing an adapter (WT adapter; KR adapter) that contains a gene encoding a GFP nanobody (GFP nanobody WT gene sequence (SEQ ID NO: 9); GFP nanobody KR gene sequence (SEQ ID NO: 10)), together with the OsTIR1 (F74G) gene, was introduced into the cells expressing each SMC6-GFP and DHC1-GFP. […]
# (§5) These cells were treated with 1 μM 5-Ph-IAA for 4 hours, and the GFP fluorescence in the cells was quantified using flow cytometry. […]
# as §5
# [2] = tested on: DHC1-GFP; assay: Degradation of DHC1-GFP, GFP fluorescence quantified by flow cytometry (FACS); conditions: 1 μM 5-Ph-IAA, 4 hours; HCT116 cells expressing DHC1-GFP, OsTIR1 (F74G) and GFP nanobody adapter
# Procedure: as §1, §2, §3, §4, §5, §5
# [3] = tested on: RAD21-GFP; assay: Degradation of RAD21-GFP, GFP fluorescence quantified by flow cytometry (FACS); conditions: 1 μM 5-Ph-IAA, 4 hours; HCT116 cells expressing RAD21-GFP, OsTIR1 (F74G) and GFP nanobody adapter
# Procedure: As the mAID-single-chain antibody (nanobody) gene, in addition to the WT adapter and the KR adapter, a hybrid adapter in which all lysine residues (K) in the amino acid sequence encoded by the mAID gene were substituted with arginine residues (R) was prepared. As in Example 1, a co-expression vector in which the OsTIR1 (F74G) gene and the WT adapter, the KR adapter, or the hybrid adapter were connected by a self-cleaving sequence P2A gene was prepared (see FIG. 7).
# In the chromosome of HCT116 cells, DNA encoding GFP was added to the downstream of DNA encoding each of the nuclear protein SMC6, the nuclear protein RAD21, and the cytoplasmic protein DHC1 by genome editing, and cells expressing SMC6-GFP and cells expressing DHC1-GFP were prepared (see FIG. 8).
# A co-expression vector containing an adapter (WT adapter; KR adapter; hybrid adapter) that contains a gene encoding a GFP nanobody (GFP nanobody WT (SEQ ID NO: 9); GFP nanobody KR (SEQ ID NO: 10)), together with the OsTIR1 (F74G) gene, was introduced into the cells expressing each SMC6-GFP, RAD21-GFP, and DHC1-GFP by transposon. As a control, a plasmid in which only OsTIR1 (F74G) and mAID were expressed was introduced (see FIG. 8).
# as §5
# [4] = tested on: endogenous p53; assay: Expression level of endogenous p53 by Western blotting; conditions: 1 μM 5-Ph-IAA, 6 hours; cells expressing OsTIR1 (F74G) and p53 nanobody KR adapter
# Procedure: (§6) Furthermore, the same experiment was performed using an adapter (WT adapter; KR adapter) containing a gene encoding a p53 nanobody (p53 nanobody WT gene sequence (SEQ ID NO: 11); p53 nanobody KR gene sequence (SEQ ID NO: 12)) (see the left part of FIG. 6). The cells were treated with 1 μM 5-Ph-IAA for 6 hours, and the expression level of endogenous p53 was confirmed by Western blotting. The results are shown in the right part of FIG. 6.
# as §6, with “adapter; KR adapter; hybrid adapter) containing” for “adapter; KR adapter) containing”, “of FIG. 10). The cells” for “of FIG. 6). The cells”
# [5] = tested on: endogenous RAS; assay: Expression level of endogenous RAS by Western blotting; conditions: 1 μM 5-Ph-IAA, 6 hours; cells expressing OsTIR1 (F74G) and RAS nanobody hybrid adapter
# Procedure: Furthermore, the same experiment was performed using an adapter (KR adapter; hybrid adapter) containing a gene encoding a RAS nanobody (gene sequence of RAS nanobody WT (SEQ ID NO: 14), amino acid sequence of RAS nanobody WT (SEQ ID NO: 15); gene sequence of RAS nanobody KR (SEQ ID NO: 16), amino acid sequence of RAS nanobody KR (SEQ ID NO: 17)) (see the left part of FIG. 11). The cells were treated with 1 μM 5-Ph-IAA for 6 hours, and the expression level of endogenous RAS was confirmed by Western blotting. The results are shown in the right part of […].
compound,measurement,setting,value
"O=C(O)Cc1c[nH]c2ccc(-c3ccccc3)cc12 [Formula 5-Ph-IAA, 5-Ph-IAA]",5-Ph-IAA-dependent degradation of target protein SMC6-GFP (GFP fluorescence),[1],could be degraded
same,5-Ph-IAA-dependent degradation of target protein DHC1-GFP (GFP fluorescence),[2],could be degraded
same,5-Ph-IAA-dependent degradation of target protein RAD21-GFP (GFP fluorescence),[3],could be degraded
same,5-Ph-IAA-dependent degradation of endogenous p53 (Western blotting),[4],could be degraded
same,5-Ph-IAA-dependent degradation of endogenous RAS (Western blotting),[5],could be efficiently degraded
